{"source": "patent US7282150B2", "about": "“Method of extracting and method of purifying an effective substance” (Ezaki Glico Co., Ltd., priority 2001, dated 2007)", "key": {"[1]": {"details": "cited from earlier work"}, "[2]": {"assay": "Acetone extraction of hesperidin from orange juice concentrate with sodium chloride (HPLC)", "format": "physicochemical", "details": "single extraction, orange juice five-fold concentrate + equal volume 15% sodium chloride solution", "description": "10 ml of 15% sodium chloride solution was added to 10 ml of California orange juice concentrate (five-fold concentrate), and stirred to homogeneity, thereby obtaining an aqueous solution. The amount of hesperidin in the California orange juice concentrate used was measured by HPLC using a column ODS, where the mobile phase was a mixture of acetonitrile and water at 20:80, the flow rate was 0.5 ml/min, and the column temperature was 40° C. The absorbance of the eluate was detected at 280 nm. A specific method of detecting the amount of hesperidin is described in Japanese Laid-Open Publication No. 8-80177. […] Thereafter, the mixture was allowed to stand for 30 minutes. […] The upper phase (polar organic solvent phase) was recovered, and the volume thereof was measured. The amount of hesperidin was measured by HPLC as described above. As a result, by a single extraction operation, 75% of hesperidin was extracted in the acetone phase."}, "[3]": {"assay": "Influence of temperature on extraction to a tetrahydrofuran phase", "format": "physicochemical", "details": "aqueous phase made up to 5 ml", "description": "Thereafter, the mixture was incubated at 45° C. for 4 hours to obtain a post-glucoamylase treatment reaction solution. […] Thereafter, the mixture was centrifuged at 3000 rpm for 5 minutes. […] The aqueous phase was recovered."}, "[4]": {"assay": "Extraction from aqueous 30% glucose + 10% sodium chloride solution with acetone or isopropanol (absorbance at 280 nm of aqueous phase)", "format": "physicochemical", "details": "single extraction; for starting amount extracted in the acetone phase: 10 ml acetone + 10 ml aqueous solution containing 30% glucose and 10% sodium chloride; for starting amount extracted in the isopropanol phase: 10 ml isopropanol + 10 ml aqueous solution containing 30% glucose and 10% sodium chloride", "description": "(§1) 1 g of a mixture of catechins (SUNPHENON®; manufactured by Taiyo Kagaku) was dissolved in 100 ml of an aqueous solution containing 30% glucose and 10% sodium chloride to obtain a sample aqueous solution. The absorbance at 280 nm of the sample aqueous solution was measured. […] Thereafter, the mixture was allowed to stand for 30 minutes. […] The lower phase (aqueous phase) was recovered, and the volume and the absorbance at 280 nm thereof were measured. The amount of the catechins extracted in the upper phase (polar organic solvent phase) was calculated from a reduction in the absorbance at 280 nm of the lower phase and the solution volume of the lower phase.\nThis additional extraction operation to Example 2a was conducted except for use of 10 ml of isopropanol instead of 10 ml of acetone.\nas §1, with “hesperidin glycosides (Toyo Sugar Refining Co., Ltd.) were” for “a mixture of catechins (SUNPHENON®; manufactured by Taiyo Kagaku) was”, “hesperidin glycosides” for “the catechins”, “phase. […] Further, similar operations and measurements were performed twice more by adding 5 ml of acetone to the aqueous phase recovered after the acetone extraction.” for “phase.”\nThis additional extraction operation to Example 4a was conducted except for use of 10 ml of isopropanol instead of 10 ml of acetone.\nas §1, with “salicin” for “a mixture of catechins (SUNPHENON®; manufactured by Taiyo Kagaku)”, “salicin” for “the catechins”\nThis additional extraction operation to Example 6a was conducted except for use of 10 ml of isopropanol instead of 10 ml of acetone.\nas §1, with “caffeic acid” for “a mixture of catechins (SUNPHENON®; manufactured by Taiyo Kagaku)”, “caffeic acid” for “the catechins”\nThis additional extraction operation to Example 8a was conducted except for use of 10 ml of isopropanol instead of 10 ml of acetone.\nas §1, with “0.1 g” for “1 g”, “of salicyl alcohol” for “of a mixture of catechins (SUNPHENON®; manufactured by Taiyo Kagaku)”, “of salicyl alcohol” for “of the catechins”\nThis additional extraction operation to Example 10a was conducted except for use of 10 ml of isopropanol instead of 10 ml of acetone."}, "[5]": {"assay": "Extraction from aqueous 30% glucose solution with tetrahydrofuran or acetonitrile (absorbance at 280 nm of aqueous phase)", "format": "physicochemical", "details": "single extraction; for starting amount extracted in the tetrahydrofuran phase: 10 ml THF + 10 ml aqueous solution containing 30% glucose; for starting amount extracted in the acetonitrile phase: 10 ml acetonitrile + 10 ml aqueous solution containing 30% glucose", "description": "as §1, with “Kagaku Co., Ltd.)” for “Kagaku)”, “glucose” for “glucose and 10% sodium chloride”\nThis additional extraction operation to Example 1a was conducted except for use of 10 ml of acetonitrile instead of 10 ml of tetrahydrofuran.\nas §1, with “hesperidin glycosides (manufactured” for “a mixture of catechins (SUNPHENON®; manufactured”, “Toyo Sugar Refining Co., Ltd.) were” for “Taiyo Kagaku) was”, “glucose” for “glucose and 10% sodium chloride”, “hesperidin glycosides” for “the catechins”, “phase. […] Further, similar operations and measurements were performed twice more by adding 5 ml of tetrahydrofuran to the aqueous phase recovered after the tetrahydrofuran extraction.” for “phase.”\nThis additional extraction operation to Example 3a was conducted except for use of 10 ml of acetonitrile instead of 10 ml of tetrahydrofuran.\nas §1, with “salicin” for “a mixture of catechins (SUNPHENON®; manufactured by Taiyo Kagaku)”, “glucose” for “glucose and 10% sodium chloride”, “salicin” for “the catechins”\nThis additional extraction operation to Example 5a was conducted except for use of 10 ml of acetonitrile instead of 10 ml of tetrahydrofuran.\nas §1, with “caffeic acid” for “a mixture of catechins (SUNPHENON®; manufactured by Taiyo Kagaku)”, “glucose” for “glucose and 10% sodium chloride”, “caffeic acid” for “the catechins”\nThis additional extraction operation to Example 7a was conducted except for use of 10 ml of acetonitrile instead of 10 ml of tetrahydrofuran.\nas §1, with “salicyl alcohol” for “a mixture of catechins (SUNPHENON®; manufactured by Taiyo Kagaku)”, “glucose” for “glucose and 10% sodium chloride”, “salicyl alcohol” for “the catechins”\nThis additional extraction operation to Example 9a was conducted except for use of 10 ml of acetonitrile instead of 10 ml of tetrahydrofuran."}, "[6]": {"assay": "THF extraction of unconcentrated or concentrated glucoamylase-treated glycosylation reaction solution", "format": "physicochemical", "details": "for Extraction rate (%), THF phase total: three THF extractions, 30° C.", "description": "Thereafter, glucoamylase treatment was performed at 45° C. for 4 hours, thereby obtaining a reaction solution. […] Extraction was conducted under a condition of 30° C. The mixture was allowed to stand for 1 hour. The mixture was separated into two phases. The upper THF phase was recovered. […] The obtained THF phases were combined together. Note that although an intermediate layer was generated in the concentrate during the phase separation, the intermediate layer was included in the aqueous phase."}, "[7]": {"assay": "THF extraction of glucoamylase (XL-4) treated glycosylation reaction solution", "format": "physicochemical", "details": "1 ml + 1 ml THF", "description": "Thereafter, the mixture was incubated at 45° C. for 3 or 4 hours. After the incubation, the contents of glucose and maltose in the solution were confirmed by a HPLC analysis method. […] Glucose and maltose in the eluate were detected by a RI detector. […] After shaking, the mixture was allowed to stand for 1 hour. […] The aqueous phase was recovered. […] The amounts of glucose and maltose were measured by an HPLC analysis method using the aqueous phase. […] Glucose and maltose in the eluate were detected by a RI detector. […] Based on the obtained results and the above-described glucose concentration, maltose concentration and HQG concentration before extraction with THF, the extraction rate to the THF phase was calculated."}, "[8]": {"details": "unconcentrated amylase treatment reaction solution"}}}
{"compound": "C[C@@H]1O[C@@H](OC[C@H]2O[C@@H](Oc3c(-c4ccc(O)c(O)c4)oc4cc(O)cc(O)c4c3=O)[C@H](O)[C@@H](O)[C@@H]2O)[C@H](O)[C@H](O)[C@H]1O", "note": "[rutin]", "values": [{"measurement": "solubility in acetone", "setting": "[1]", "value": "insoluble in acetone"}, {"measurement": "solubility in water", "setting": "[1]", "value": "poorly soluble in water"}]}
{"compound": "C[C@@H]1O[C@@H](O[C@H]2[C@H](Oc3cc(O)c4c(c3)O[C@H](c3ccc(O)cc3)CC4=O)O[C@H](CO)[C@@H](O)[C@@H]2O)[C@H](O)[C@H](O)[C@H]1O", "note": "[naringin]", "values": [{"measurement": "solubility in water", "setting": "[1]", "value": "poorly soluble in water"}]}
{"compound": "COc1ccc([C@@H]2CC(=O)c3c(O)cc(O[C@@H]4O[C@H](CO[C@@H]5O[C@@H](C)[C@H](O)[C@@H](O)[C@H]5O)[C@@H](O)[C@H](O)[C@H]4O)cc3O2)cc1O", "note": "[hesperidin]", "values": [{"measurement": "hesperidin extracted in the acetone phase", "setting": "[2]", "value": 75, "unit": "%"}, {"measurement": "solubility in acetone", "setting": "[1]", "value": "insoluble in acetone"}, {"measurement": "solubility in water", "setting": "[1]", "value": "poorly soluble in water"}]}
{"compound": "Oc1ccc(O)cc1", "note": "[HQ, hydroquinone]", "values": [{"measurement": "concentration of the aqueous phase after THF extraction", "setting": "[3]; 3° C.", "value": 0.9, "unit": "%"}, {"measurement": "concentration of the aqueous phase after THF extraction", "setting": "[3]; 10° C.", "value": 0.7, "unit": "%"}, {"measurement": "concentration of the aqueous phase after THF extraction", "setting": "[3]; 20° C.", "value": 1.0, "unit": "%"}, {"measurement": "concentration of the aqueous phase after THF extraction", "setting": "[3]; 22° C.", "value": 1.0, "unit": "%"}, {"measurement": "concentration of the aqueous phase after THF extraction", "setting": "[3]; 30° C.", "value": 1.0, "unit": "%"}, {"measurement": "concentration of the aqueous phase after THF extraction", "setting": "[3]; 45° C.", "value": 1.2, "unit": "%"}]}
{"compound": "COc1ccc([C@@H]2CC(=O)c3c(O)cc(O[C@@H]4O[C@H](CO)[C@@H](O)[C@H](O)[C@H]4O[C@@H]4O[C@@H](C)[C@H](O)[C@@H](O)[C@H]4O)cc3O2)cc1O", "note": "[neohesperidin]", "values": [{"measurement": "solubility in water", "setting": "[1]", "value": "poorly soluble in water"}]}
{"compound": "OCc1ccccc1O[C@@H]1O[C@H](CO)[C@@H](O)[C@H](O)[C@H]1O", "note": "[salicin]", "values": [{"measurement": "starting amount extracted in the acetone phase", "setting": "[4]", "value": 58.0, "unit": "%"}, {"measurement": "starting amount extracted in the isopropanol phase", "setting": "[4]", "value": 97.0, "unit": "%"}, {"measurement": "starting amount extracted in the tetrahydrofuran phase", "setting": "[5]", "value": 96.5, "unit": "%"}, {"measurement": "starting amount extracted in the acetonitrile phase", "setting": "[5]", "value": 98.1, "unit": "%"}]}
{"compound": "O=C(O)/C=C/c1ccc(O)c(O)c1", "note": "[caffeic acid]", "values": [{"measurement": "starting amount extracted in the acetone phase", "setting": "[4]", "value": 78.2, "unit": "%"}, {"measurement": "starting amount extracted in the isopropanol phase", "setting": "[4]", "value": 87.2, "unit": "%"}, {"measurement": "starting amount extracted in the tetrahydrofuran phase", "setting": "[5]", "value": 88.6, "unit": "%"}, {"measurement": "starting amount extracted in the acetonitrile phase", "setting": "[5]", "value": 76.2, "unit": "%"}]}
{"compound": "OCc1ccccc1O", "note": "[salicyl alcohol]", "values": [{"measurement": "starting amount extracted in the acetone phase", "setting": "[4]", "value": 87.7, "unit": "%"}, {"measurement": "starting amount extracted in the isopropanol phase", "setting": "[4]", "value": 98.7, "unit": "%"}, {"measurement": "starting amount extracted in the tetrahydrofuran phase", "setting": "[5]", "value": 98.7, "unit": "%"}, {"measurement": "starting amount extracted in the acetonitrile phase", "setting": "[5]", "value": 98.2, "unit": "%"}]}
{"compound": "OC[C@H]1O[C@H](O[C@H]2[C@H](O)[C@@H](O)C(O)O[C@@H]2CO)[C@H](O)[C@@H](O)[C@@H]1O", "note": "(mixture of isomers) [Maltose, maltose]", "values": [{"measurement": "Corrected concentration (equivalent in 5 ml) %, THF phase total", "setting": "[6]; 70% concentrate", "value": 0, "unit": "%"}, {"measurement": "Extraction rate (%), THF phase total", "setting": "[6]; 70% concentrate", "value": 0, "unit": "%"}, {"measurement": "Corrected concentration (equivalent in 5 ml) %, THF phase total", "setting": "[6]; 80% concentrate", "value": 0, "unit": "%"}, {"measurement": "Extraction rate (%), THF phase total", "setting": "[6]; 80% concentrate", "value": 0, "unit": "%"}, {"measurement": "Corrected concentration (equivalent in 5 ml) %, THF phase total", "setting": "[6]; [8]", "value": 0.1, "unit": "%"}, {"measurement": "Extraction rate (%), THF phase total", "setting": "[6]; [8]", "value": 3.2, "unit": "%"}, {"measurement": "Extraction rate to THF (%)", "setting": "[7]; (XL-4) 1-fold glucoamylase treatment solution", "value": 38.6, "unit": "%"}, {"measurement": "Extraction rate to THF (%)", "setting": "[7]; (XL-4) 1.5-fold glucoamylase treatment solution", "value": 33.0, "unit": "%"}, {"measurement": "Extraction rate to THF (%)", "setting": "[7]; (XL-4) 2-fold glucoamylase treatment solution", "value": 36.4, "unit": "%"}]}
